Experimental data reported in patent US4581356A, “Triazine derivatives, and pharmaceutical compositions comprising the same” (Fujisawa Pharmaceutical Co., Ltd., priority 1983, dated 1986).

Key:
[1] = system: platelet aggregation (collagen as inducer); assay: Inhibition of collagen-induced platelet aggregation in platelet rich plasma; format: cell-based; conditions: Oryctolagus cuniculus, rabbit PRP, 37° C., collagen 2.5 μg/ml, read-out: ID50 Collagen
Experimental: (§1) Platelet rich plasma (PRP) which contains 6.5-7.5×10^8 platelet/ml was prepared from rabbit blood. To the 200 μl of PRP, 5 μl of calcium chloride (1 mM) and 50 μl of pH 7.4 Tris-acetate solution (5 mM) containing 120 mM NaCl and test compound were added successively, and then stirred for 2 min. at 37° C. To the solution, 5 μl of adenosine diphosphate (ADP) (2.5 μM) or collagen (2.5 μg/ml) was added as an aggregation inducer. Aggregation was measured by using an aggregometer (NKK HEMA TRACER 1).

[2] = system: platelet aggregation (ADP as inducer); assay: Inhibition of ADP-induced platelet aggregation in platelet rich plasma; format: cell-based; conditions: Oryctolagus cuniculus, rabbit PRP, 37° C., ADP 2.5 μM, read-out: ID50 ADP
Experimental: as §1

blood pressure = assay: Antihypertensive activity in uninephrectomized DOCA/saline hypertensive rats (mean arterial pressure); format: in vivo, male Wister rats; conditions: orally, DOCA rats
Experimental: Five-week old male Wister rats were uninephrectomized under anesthesia. Deoxycorticosterone acetate (DOCA) (30 mg/kg), suspended in peanut oil, was injected subcutaneously twice a week and 1% saline was substituted for the drinking water. Animals with mean blood pressure 150-200 mmHg were used for experiment between 5 and 7 weeks after surgery.
The test compounds were administered intraperitonealy or orally. Blood pressure was measured at the femoral artery by means of a pressure transducer and recorded as electrically integrated values of mean arterial pressure.

ulcers (stomach) = assay: Antiulcer activity: inhibition of ulcer area in rats immobilized in water bath; format: in vivo, Sprague-Dawley rats; conditions: orally, 7 hours
Experimental: Sprague-Dawley rats weighing about 200 g were used. Each animal was immobilized in a small cage and put in a water bath allowing to respire. The temperature of the water bath kept at 22° C. The test compound was administered orally just before the immobilization. Seven hours later, the animals were sacrificed and their stomachs were removed. The stomach was then fixed with 2% formalin. The area of ulcers was measured for each animal. The mean area (mm^2) in the test animals was compared with that in the control animals and inhibition effect (%) were calculated.

SMILES | IC50 [1] [nM] | IC50 [2] [nM] | Effect Max (mean ratio of maximum decrease of blood pressure) (blood pressure; 0.1 mg/kg (dose a)) [%] | Effect Max (mean ratio of maximum decrease of blood pressure) (blood pressure; 1 mg/kg (dose b)) [%] | Effect (inhibition of ulcer area) (ulcers (stomach); 10 mg/kg (dose c)) [%] | Effect (inhibition of ulcer area) (ulcers (stomach); 32 mg/kg (dose d)) [%]
CN1C(=O)CCc2cc(C3=NNC(=O)NC3)ccc21 [Example 8 - (4), 6-(1-methyl-2-oxo-1,2,3,4-tetrahydroquinolin-6-yl)-4,5-dihydro-1,2,4-triazin-3(2H)-one] | 240 | 360 | 15 | 49 | 68.0 | 80.0
CN1C(=O)Cc2cc(C3=NNC(=O)NC3)ccc21 [Example 9 - (4), 6-(1-Methyl-2-indolinon-5-yl)-4,5-dihydro-1,2,4-triazin-3(2H)-one] | 2700 | 4600 | – | – | – | –
CC(=O)N1CCCc2cc(C3=NNC(=O)NC3C)ccc21 (stereo not drawn) [Example 10 - (5), 6-(1-acetyl-1,2,3,4-tetrahydroquinolin-6-yl)-5-methyl-4,5-dihydro-1,2,4-triazin-3(2H)-one] | 540 | 1400 | – | 40 | – | –
CC1NC(=O)NN=C1c1ccc2c(c1)CCCN2 (stereo not drawn) [Example 10 - (6), 6-(1,2,3,4-tetrahydroquinolin-6-yl)-5-methyl-4,5-dihydro-1,2,4-triazin-3(2H)-one] | 470 | 1300 | 33 | 57 | – | –
CC(=O)N1CCCc2ccc(C3=NNC(=O)NC3C)cc21 (stereo not drawn) [Example 11 - (3), 6-(1-Acetyl-1,2,3,4-tetrahydroquinolin-7-yl)-5-methyl-4,5-dihydro-1,2,4-triazin-3(2H)-one] | 1900 | 3700 | – | – | – | –
CC1NC(=O)NN=C1c1ccc2c(c1)NCCC2 (stereo not drawn) [Example 11 - (4), 6-(1,2,3,4-Tetrahydroquinolin-7-yl)-5-methyl-4,5-dihydro-1,2,4-triazin-3(2H)-one] | 22000 | 56000 | – | – | – | –
CC1NC(=O)NN=C1c1ccc2c(ccc(=O)n2C)c1 (stereo not drawn) [Example 12 - (3), 6-(1-Methyl-2-oxo-1,2-dihydroquinolin-6-yl)-5-methyl-4,5-dihydro-1,2,4-triazin-3(2H)-one] | 48 | 67 | 40 | 58 | – | –
CC1NC(=O)NN=C1c1ccc2c(c1)CCCN2C(=O)C1CC1 (stereo not drawn) [Example 13, 6-(1-cyclopropanecarbonyl-1,2,3,4-tetrahydroquinolin-6-yl)-5-methyl-4,5-dihydro-1,2,4-triazin-3(2H)-one] | 34 | 160 | – | – | – | –
CC1NC(=O)NN=C1c1ccc2c(c1)CCCN2C(=O)C1CCC1 (stereo not drawn) [Example 14, 6-(1-Cyclobutanecarbonyl-1,2,3,4-tetrahydroquinolin-6-yl)-5-methyl-4,5-dihydro-1,2,4-triazin-3(2H)-one] | 81 | 250 | – | – | – | –
CC1NC(=O)NN=C1c1ccc2c(c1)CCCN2C (stereo not drawn) [Example 15, 6-(1-methyl-1,2,3,4-tetrahydroquinolin-6-yl)-5-methyl-4,5-dihydro-1,2,4-triazin-3(2H)-one] | 2000 | 5800 | – | 68 | – | –
